Assay results reported in patent US20230124361A1, “SMALL MOLECULE STING ANTAGONISTS” (CURADEV PHARMA PVT. LTD., priority 2020, published 2023).

target: T1, STING (Homo sapiens, UniProt Q86WV6, G230A/H232R/R293Q/R71H); assay: Reporter gene expression assay in THP1-Dual cells (IRF pathway Lucia luciferase, 2',3'-cGAMP stimulation); format: cell-based; settings: 10 min preincubation, 5 μM 2',3'-cGAMP, 20 hr, IRF reporter QUANTI-Luc, read-out: THP-1 (HAQ) Activity
T1 construct: host or cells: THP1-Dual cells (human THP-1 monocyte line with Lucia/SEAP reporters)
Experimental: Reporter Gene Expression Assay in THP-1 Cells
THP1-Dual™ cells (Invivogen) were derived from the human THP-1 monocyte cell line by stable integration of two inducible reporter constructs. As a result, THP1-Dual™ cells allow the simultaneous study of the IRF pathway, by assessing the activity of a secreted luciferase (Lucia) and the NF-κB pathway, by monitoring the activity of secreted SEAP. 5×10^4 THP1-Dual™ cells were seeded in 384-well plates in growth medium and preincubated with novel compounds for 10 minutes followed by stimulation with 5 μM 2′,3′-cGAMP. After 20 hr of stimulation the supernatant was removed and the IRF pathway reporter protein was readily measured in the cell culture supernatant using QUANTI-Luc™ (Invivogen), a luciferase detection reagent on a Spectramax i3X luminometer.
In the tables below, IC50 value ranges for exemplary compounds are given. The IC50 ranges are indicated as “A” for values less than or equal to 1 μM, “B” for values greater than 1 μM and less than or equal to 10 μM, and “C” for values greater than 10 μM.

T1 sequence (Q86WV6 whole entry R71H/G230A/H232R/R293Q): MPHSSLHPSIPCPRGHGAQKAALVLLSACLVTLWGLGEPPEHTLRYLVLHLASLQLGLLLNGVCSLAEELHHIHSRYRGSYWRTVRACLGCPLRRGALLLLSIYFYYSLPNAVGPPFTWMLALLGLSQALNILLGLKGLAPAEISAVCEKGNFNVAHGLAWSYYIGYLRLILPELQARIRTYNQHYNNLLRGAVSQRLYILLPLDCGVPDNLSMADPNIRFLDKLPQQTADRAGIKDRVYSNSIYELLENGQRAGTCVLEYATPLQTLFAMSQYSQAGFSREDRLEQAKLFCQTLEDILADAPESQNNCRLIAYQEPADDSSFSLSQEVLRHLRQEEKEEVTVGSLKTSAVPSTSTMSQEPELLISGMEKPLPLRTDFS

SMILES | IC50 [nM]
O=C(Nc1ccc2c(c1)N(Cc1ccccc1)C(=O)CS2)Nc1ccc2nc[nH]c2c1 [Example 30, 1-(1H-benzo[d]imidazol-6-yl)-3-(4-benzyl-3-oxo-3,4-dihydro-2H-benzo[b][1, 4]thiazin-6-yl)urea] | 1000 to 10000
N#CCC1Sc2ccc(NC(=O)Nc3ccc4cc[nH]c4c3)cc2N(Cc2ccccc2)C1=O (stereo not drawn) [Example 77] | 1000 to 10000
O=S(=O)(Nc1ccc2c(c1)OCCN2c1ccccc1)Nc1ccc2cc[nH]c2c1 [Example 175, N-1H-indol-6-yl-N′-(4-phenyl-3,4-dihydro-2H-1,4-benzoxazin-7-yl)sulfuric diamide] | 1000 to 10000
O=C(Nc1ccc2c(c1)N(Cc1ccccc1)C(=O)CS2)Nc1cccc2cc[nH]c12 [Example 19, 1-(4-benzyl-3-oxo-3,4-dihydro-2H-benzo[b][1, 4]thiazin-6-yl)-3-(1H-indol-7-yl)urea] | 1000 to 10000
O=C(Nc1ccc2c(c1)OCC(=O)N2Cc1ccc2nsnc2c1)Nc1ccc2cc[nH]c2c1 [Example 119, 1-(4-(benzo[c][1,2,5]thiadiazol-5-ylmethyl)-3-oxo-3,4-dihydro-2H-benzo[b][1,4]oxazin-7-yl)-3-(1H-indol-6-yl)urea] | 1000 to 10000
O=C(Nc1ccc2cc[nH]c2c1)Nc1cc2c(cc1Br)OCCN2Cc1ccccc1 [Example 180, 1-(4-benzyl-7-bromo-3,4-dihydro-2H-benzo[b][1, 4]oxazin-6-yl)-3-(1H-indol-6-yl)urea] | 1000 to 10000
O=C(Nc1ccc2c(c1)OCC(=O)N2CCOc1ccccc1Cl)Nc1ccc2cc[nH]c2c1 [Example 100, 1-(4-(2-(2-chlorophenoxy)ethyl)-3-oxo-3,4-dihydro-2H-benzo[b][1,4]oxazin-7-yl)-3-(1H-indol-6-yl)urea] | 1000 to 10000
O=C(Nc1ccc2c(c1)N(c1ccccc1)CCO2)Nc1ccc2cc[nH]c2c1 [Example 184, 1-(1H-indol-6-yl)-3-(4-phenyl-3,4-dihydro-2H-benzo[b][1,4]oxazin-6-yl)urea] | 1000 to 10000
O=C(Nc1ccc(F)cc1)Nc1ccc2c(c1)N(Cc1ccncc1)C(=O)CS2 [Example 17, l-(4-fluorophenyl)-3-(3-oxo-4-(pyridin-4-ylmethyl)-3,4-dihydro-2H-benzo[b][1, 4]thiazin-6-yl)urea] | > 10000
CN1C(=O)CSc2ccc(NC(=O)Nc3ccc(F)cc3)cc21 [Example 193, l-(4-fluorophenyl)-3-(4-methyl-3-oxo-3,4-dihydro-2H-benzo[b][1, 4]thiazin-6-yl)urea] | > 10000
O=C(Nc1ccc2c(c1)N(C(C(=O)NC1CC1)c1ccccc1)CCO2)Nc1ccc2cc[nH]c2c1 (stereo not drawn) [Example 190, 2-(6-(3-(1H-indol-6-yl)ureido)-2,3-dihydro-4H-benzo[b][1,4]oxazin-4-yl)-N-cyclopropyl-2-phenylacetamide] | 1000 to 10000
O=C(Nc1ccccc1)Nc1ccc2c(c1)N(Cc1ccccc1)C(=O)CS2 [Example 2, 1-(4-benzyl-3-oxo-3,4-dihydro-2H-benzo[b][1, 4]thiazin-6-yl)-3-phenylurea] | 1000 to 10000
CNC(=O)C(c1ccccc1)N1CCOc2ccc(NC(=O)Nc3ccc4cc[nH]c4c3)cc21 (stereo not drawn) [Example 189, 2-(6-(3-(1H-indol-6-yl)ureido)-2,3-dihydro-4H-benzo[b][1,4]oxazin-4-yl)-N-methyl-2-phenylacetamide] | 1000 to 10000
N#Cc1ccc(CN2C(=O)COc3cc(NC(=O)Nc4ccc5cc[nH]c5c4)ccc32)cc1 [Example 123, 1-(4-(4-cyanobenzyl)-3-oxo-3,4-dihydro-2H-benzo[b][1,4]oxazin-7-yl)-3-(1H-indol-6-yl)urea] | 1000 to 10000
CC(C)(C)c1nc(CN2C(=O)COc3cc(NC(=O)Nc4ccc5cc[nH]c5c4)ccc32)no1 [Example 134, l-(4-((5-(tert-butyl)-1,2,4-oxadiazol-3-yl)methyl)-3-oxo-3,4-dihydro-2H-benzo[b][, 4]oxazin-7-yl)-3-(1H-indol-6-yl)urea] | 1000 to 10000
O=C(Nc1ccc2c(c1)SCCN2c1ccccc1)Nc1ccc2cc[nH]c2c1 [Example 182, 1-(1H-indol-6-yl)-3-(4-phenyl-3,4-dihydro-2H-benzo[b][1,4]thiazin-7-yl)urea] | ≤ 1000
O=C(Nc1ccc2c(c1)N(CC1CCCC1)CCS2)Nc1ccc2cc[nH]c2c1 [Example 67, 1-(4-(cyclopentylmethyl)-3,4-dihydro-2H-benzo[b][1, 4]thiazin-6-yl)-3-(1H-indol-6-yl)urea] | ≤ 1000
O=C(Nc1ccc2c(c1)CCCC2)Nc1ccc2c(c1)OCC(=O)N2Cc1ccccc1 [Example 133, 1-(4-benzyl-3-oxo-3,4-dihydro-2H-benzo[b][1, 4]oxazin-7-yl)-3-(5,6,7,8-tetrahydro-naphthalen-2-yl)urea] | 1000 to 10000

SMILES | IC50 [nM]
O=C(Nc1ccc(F)cc1)Nc1ccc2c(c1)N(Cc1cccnc1)C(=O)CS2 [Example 16, l-(4-fluorophenyl)-3-(3-oxo-4-(pyridin-3-ylmethyl)-3,4-dihydro-2H-benzo[b] [1,4]thiazin-6-yl)urea] | > 10000
O=C(Nc1ccc2c(c1)OCC(=O)N2Cc1c(F)cccc1F)Nc1ccc2cc[nH]c2c1 [Example 96, 1-(4-(2,6-difluorobenzyl)-3-oxo-3,4-dihydro-2H-benzo [b][1, 4]oxazin-7-yl)-3-(1H-indol-6-yl)urea] | > 10000
O=C(NCc1ccco1)Nc1ccc2c(c1)OCC(=O)N2Cc1ccccc1 [Example 130, 1-(4-benzyl-3-oxo-3,4-dihydro-2H-benzo[b][1, 4]oxazin-7-yl)-3-(furan-2-ylmethyl)urea] | > 10000
NC(=O)c1cccc(CN2C(=O)COc3cc(NC(=O)Nc4ccc5cc[nH]c5c4)ccc32)c1 [Example 98, 3-((7-(3-(1H-indol-6-yl)ureido)-3-oxo-2,3-dihydro-4H-benzo[b][1,4]oxazin-4-yl)methyl)benzamide] | 1000 to 10000
O=C(Nc1ccc2c(c1)OCC(=O)N2Cc1ccc2c(c1)OCO2)Nc1ccc2cc[nH]c2c1 [Example 114, 1-(4-(benzo[d][1,3]dioxol-5-ylmethyl)-3-oxo-3,4-dihydro-2H-benzo[b][1,4]oxazin-7-yl)-3-(1H-indol-6-yl)urea] | ≤ 1000
O=C1CSc2ccc(-c3n[nH]c(-c4ccccc4)n3)cc2N1Cc1c(F)cccc1Cl [Example 44, 4-(2-Chloro-6-fluorobenzyl)-6-(5-phenyl-1H-1,2,4-triazol-3-yl)-2H-benzo[b][1,4]thiazin-3(4H)-one] | 1000 to 10000
O=C(Nc1ccc2c(c1)OCC(=O)N2Cc1nc2ccccc2s1)Nc1ccc2cc[nH]c2c1 [Example 117, 1-(4-(benzo[d]thiazol-2-ylmethyl)-3-oxo-3,4-dihydro-2H-benzo[b][1,4]oxazin-7-yl)-3-(1H-indol-6-yl)urea] | ≤ 1000
O=C(Nc1ccc2c(c1)N(Cc1ccccc1)CC2)Nc1ccc2cc[nH]c2c1 [Example 74, 1-(1-Benzylindolin-6-yl)-3-(1H-indol-6-yl)urea] | 1000 to 10000
O=C(Nc1ccc2c(c1)OCC(=O)N2Cc1ccccc1)Nc1ccc2cc[nH]c2c1 [Example 69, 1-(4-Benzyl-3-oxo-3,4-dihydro-2H-benzo[b][1,4]oxazin-7-yl)-3-(1H-indol-6-yl)urea] | ≤ 1000
O=C(Nc1ccc2c(c1)N(Cc1ccccc1)C(=O)CS2)Nc1ccc2[nH]ccc2c1 [Example 9, 1-(4-benzyl-3-oxo-3,4-dihydro-2H-benzo[b][1, 4]thiazin-6-yl)-3-(1H-indol-5-yl)urea] | 1000 to 10000
O=C(Nc1ccc2c(c1)OCC(=O)N2Cc1cccc(F)c1F)Nc1ccc2cc[nH]c2c1 [Example 95, 1-(4-(2,3-difluorobenzyl)-3-oxo-3,4-dihydro-2H-benzo[b][1, 4]oxazin-7-yl)-3-(1H-indol-6-yl)urea] | ≤ 1000
O=C(Nc1ccc2c(c1)OCC(=O)N2CC1CCOC1)Nc1ccc2cc[nH]c2c1 (stereo not drawn) [Example 150, 1-(1H-indol-6-yl)-3-(3-oxo-4-((tetrahydrofuran-3-yl)methyl)-3,4-dihydro-2H-benzo [b][1, 4]oxazin-7-yl)urea] | 1000 to 10000
O=C(Nc1ccc2c(c1)N(Cc1ccccc1)CC[S+]2[O-])Nc1ccc2cc[nH]c2c1 (stereo not drawn) [Example 167, 1-(4-benzyl-1-oxido-3,4-dihydro-2H-benzo[b][1, 4]thiazin-6-yl)-3-(1H-indol-6-yl)urea] | > 10000
CN1C(=O)CSc2ccc(NC(=O)Nc3ccc4cc[nH]c4c3)cc21 [Example 87, 1-(1H-indol-6-yl)-3-(4-methyl-3-oxo-3,4-dihydro-2H-benzo[b][1, 4]thiazin-6-yl)urea] | 1000 to 10000
O=C1CCc2ccc(NC(=O)Nc3ccc4c(c3)N(Cc3ccccc3)C(=O)CS4)cc2N1 [Example 29, 1-(4-benzyl-3-oxo-3,4-dihydro-2H-benzo[b][1, 4]thiazin-6-yl)-3-(2-oxo-1,2,3,4-tetrahydro-quinolin-7-yl)urea] | 1000 to 10000
O=C(Nc1ccc2c(c1)OCC(=O)N2Cc1nc(-c2ccccc2)no1)Nc1ccc2cc[nH]c2c1 [Example 121, 1-(1H-indol-6-yl)-3-(3-oxo-4-((3-phenyl-1,2,4-oxadiazol-5-yl)methyl)-3,4-dihydro-2H-benzo[b][1,4]oxazin-7-yl)urea] | 1000 to 10000
CN(C(=O)Nc1ccc2c(c1)N(Cc1ccccc1)C(=O)CS2)c1ccc2cc[nH]c2c1 [Example 59, 3-(4-benzyl-3-oxo-3,4-dihydro-2H-benzo[b][1, 4]thiazin-6-yl)-l-(1H-indol-6-yl)-1-methylurea] | 1000 to 10000
C=CCC1COc2ccc(NC(=O)Nc3ccc4cc[nH]c4c3)cc2N1Cc1ccccc1 (stereo not drawn) [Example 78, 1-(3-Allyl-4-benzyl-3,4-dihydro-2H-benzo[b][1,4]oxazin-6-yl)-3-(1H-indol-6-yl)urea] | ≤ 1000
